According to patent publication US5716982A, “Retinoids and methods of use of same” (priority 1995, dated 1998):
Where two headings read alike, the source gives them in different places.

Assays:
[1] = tested on: Human promyelocytic leukemia HL-60 cells; experiment: Cell differentiation of HL-60 cells, nitroblue tetrazolium (NBT) reduction; type: cell-based; details: Homo sapiens
Procedure: Human promyelocytic leukemia HL-60 cells were cultured in RPMI-1640 medium supplemented by 10% heat-inactivated calf serum and 100 U/ml of penicillin plus 100 μg/ml of streptomycin. The flasks containing cells and medium were incubated in an incubator with 5% CO2 at 37° C. Log phase cells were seeded into the medium at a concentration of 1.2×10^5to 1.4×10^5 cells per ml and cultured in flasks containing 5 ml of medium. Each group consisted of three flasks. Different concentrations of coumarin-retinoids were added. At intervals following the addition of coumarin-retinoids to the cultures, a small portion of cells was removed and live cells were counted under a light microscope using a dye-exclusionmethod with trypan blue. Cell differentiation was judged in terms of morphology and nitroblue tetrazolium (NBT) reduction.
For a determination of NBT reducing activity, a portion of the coumarin-retinoid-treated cells was removed at intervals following treatment and centrifuged. After centrifugation, 0.5 ml of 0.1% NBT (containing 100 ng TPA) was added to each tube. The contents of the test tubes were then incubated for 1 hour at 37° C. Cell smears were prepared from the cell sediment and stained using the Wright-Giemsa technique. For each smear prepared, 200 cells were isolated for examination under a light microscope with an oil immersion lens. Cells stained with blue-black granules were considered NBT-positive cells. The 50% differentiation or effective concentration (ED50 or EC50) is shown in terms of molar (M) concentration of the […] tested.
(§1) The protocols of Examples 14 and 21 were used, for the NBT and MTT assays, respectively.

[2] = tested on: lipid peroxidation of rat liver microsome; experiment: Fe/Cys induced lipid peroxidation of rat liver microsome (anti-oxidation); type: biochemical; details: n = 3
Procedure: Lipid peroxidation was induced by adding 1 mM FeSO4 and 10 mM cysteine to the microsome fraction of rat liver with the incubations being carried out at 37° C. for 30 minutes in a reaction mixture containing 10 mM phosphate buffer (pH 7.4). The reaction was terminated by the addition of 0.3 ml of 20% trichloroacetic acid solution. Thiobarbituric acid was then added and the mixture was boiled for 10 minutes. After cooling the test tubes under running tap water, the optical density at 532 nm was measured. Lipid peroxidation in both the treated groups and the control group was expressed in nmol MDA/mg protein. The percentage inhibition indicates the anti-oxidation properties of the coumarin retinoids tested.

HL-60 cells = experiment: MTT assay in HL-60 cells; type: cell-based, human; details: Homo sapiens, MTT; for IC50: 120 h, HL-60 (Table 12), read-out: ED50 (the source's name); for inhibition at 10 µM: 10^-5 M; for inhibition at 1 µM: 10^-6 M; for inhibition at 0.1 µM: 10^-7 M
Procedure: (§2) Human cancer cell lines (KB, A2780, MCF-7, HL-60, A549) were used. For a monolayer culture, 0.5 ml of trypsin solution ([…]) was added to the flasks for digestion. Microtiter plates (96 well) were used for the cell culture and 200 μl of cell suspension (1200 tumor cells) were placed in each well and incubated at 37° C. for 24 hours. Following the addition of the test compound, the control and treated flasks were placed in a CO2 incubator for 5 day culture. For the MTT assay, 200 μl of MTT solution (5 mg in 10 ml of phosphate buffer) plus the medium were added and incubated for another 4 hours. Following incubation, the supernatant was discarded and 200 μl of DMSO was added to each well. With a mild agitation the OD values were determined by the MR 700 Elisa at 570 nm (reference wavelength was 450 nm). The ED50 of the compound and tumor cell survival rate [formula] as percent inhibition were calculated.
as §1

[3] = tested on: Ornithine decarboxylase (ODC); experiment: Croton oil induced ornithine decarboxylase (ODC) activity in mouse epidermis; type: in vivo; details: single dose pretreatment, FIG. 1 (x±SD, n=3)
Procedure: ICR mice (6-8 weeks old) were pretreated with a single dose of coumarin retinoid. On the third day, the animals received a topical application of 0.2 ml of 1% croton oil in acetone. All animals were sacrificed five hours after the croton oil treatment and the epidermis was separated by a brief heat treatment at 52° C. for 30 seconds and minced in a blender. The cell suspension and broth were separated by a centrifugation at 30,000×g for 30 seconds and the supernatant was obtained. Ornithine decarboxylase (ODC) enzyme activity was determined by measuring the release of CO2 from L-(^14 C)-ornithine and expressed as nmole CO2 /30 min/mg protein and the results for coumarin retinoid I-10 and I-6 are shown in FIG. 1. […] ODC activity is a critical parameter for monitoring cancer chemoprevention or promotion.

[4] = tested on: Salmonella typhimurium strain TA100; experiment: Anti-mutagenicity (Ames), MMS-induced his+ revertants, TA100; type: cell-based; details: MMS 0.5 μl/plate; for his+ -revertants/per plate, TA100: n = 3
Procedure: (§3) An antimutagenicity assay was conducted according to the method developed by Ames et al. using Salmonella typhimurium strains TA 102 and TA 100 and mammalian microsomal enzymes. Beta-naphthoflavone and phenobarbital-induced rat liver supernatant (9000×g S-9 fraction) was used as the enzyme source for metabolic activation. The night before the experiment, certified bacterial solution (assessed for its biological characteristics and donated by Professor Ames) was inoculated into petri dishes. The petri dishes were then incubated for 15 hours at 37° C. From each petri dish, 0.1 ml of the bacterial solution was removed and added to sterile test tubes. To these test tubes, 0.1 ml of different concentrations of coumarin retinoids and 0.5 ml of either S-9 mixed solution or phosphate buffer were then added. The final solution for each test tube was incubated in a water bath at 37° C. for 20 minutes before adding 2 ml of agar solution. After thorough mixing, the solution was transferred into petri dishes and incubated once again at 37° C. for 48 hours. After incubation, the number of colonies in each petri dish were counted. The revertant numbers of the bacteria in control and treated groups were compared and the inhibition rate was calculated.

[5] = tested on: Salmonella typhimurium strain TA102; experiment: Anti-mutagenicity (Ames), MMS-induced his+ revertants, TA102; type: cell-based; details: MMS 0.5 μl/plate; for his+ -revertants/per plate, TA102: n = 3
Procedure: as §3

[6] = tested on: bone abnormalities in mouse fetus; experiment: Bone abnormalities in mouse fetus (anti-teratogenicity); type: in vivo
Procedure: (§4) Female mice were examined by vaginal smear the morning after being caged with male mice, and if sperm or a vaginal plug was discovered, then the mice were determined to be pregnant. The retinoids were administered at the dosage indicated starting on the seventh day of pregnancy and continued once a day for the next ten days. On the 20th day after the female mice were determined to be pregnant, they were sacrificed by cervical dislocation. Both sides of the uterus were checked and the number of living embryos, dead embryos, and absorbed embryos were counted. The living embryos were further examined for bone abnormalities.
After the embryos became transparent, they were dissected and their skeletons were checked by observation under a microscope.

chondrosarcoma in rats = experiment: Growth of transplanted chondrosarcoma in rats; type: in vivo, rat
Source text: Transplantable chondrosarcomas obtained from Dr. Trown, Hoffman--La Roche Institute of Molecular Biology and Wistar rats obtained from the Breeding Center of Experimental Animals, Chinese Academy of Medical Sciences were used. According to the routine transplantation protocol as described in Cancer Treatment Reports 60(11):1647-1653 (1976) where the small pieces of chondrosarcoma tumor were implanted subcutaneously in the right inguinal region of rats using a trocar. Tumor-bearing rats were randomized to a control group and a treated group. Each group consisted of ten rats. The compound was given orally for 12 days at the indicated dosage. Sixty days after transplantation, the rats were sacrificed and the tumor weight was determined. The inhibition rate was calculated according to the following formula: [formula]

fetus absorption in mice = experiment: Fetus absorption in mice (anti-teratogenicity); type: in vivo, mouse
Procedure: as §4

HCT-8 cell line = experiment: MTT assay in HCT-8 cells; type: cell-based; details: Homo sapiens, HCT-8, 120 h; read-out: MTT ED50
A2780 cell line = experiment: MTT assay in A2780 cells; type: cell-based; details: Homo sapiens, A2780, 120 h; read-out: MTT ED50
Procedure: as §2, §1

BEL 7402 cell line = experiment: MTT assay in BEL 7402 cells; type: cell-based; details: Homo sapiens, Bel-7402, 120 h; Bel7402; read-out: MTT ED50
KB cell line = experiment: MTT assay in KB cells; type: cell-based; details: Homo sapiens, 120 h, read-out: MTT ED50
Procedure: as §2, §1

[7] = NBT reduction, 50% differentiation, HL-60 (Table 2), read-out: EC50

CC(=O)c1cc2ccc(OC(=O)/C=C(C)/C=C/C=C(C)/C=C/C3=C(C)CCCC3(C)C)c(C(=O)O)c2oc1=O [Compound I-5]
EC50 [1, 7]: 0.28 µM | Lipid Peroxidation ([2]; 1 μM): 2.19 ± 0.13 μM MDA/mg protein | IC50 (HL-60 cells): 8.5 µM | inhibition at 10 µM (HL-60 cells; HL-60): 51.6% | inhibition at 1 µM (HL-60 cells; HL-60): 34 ± 7.1% | inhibition at 0.1 µM (HL-60 cells; HL-60): 11.5 ± 4.2%

CC(=O)c1cc2cc(Cl)c(OC(=O)/C=C(C)/C=C/C=C(C)/C=C/C3=C(C)CCCC3(C)C)cc2oc1=O [Compound I-6]
inhibition of croton oil induced ODC activity [3]: significantly inhibited the ODC activity induced by croton oil | EC50 [1, 7]: 0.6 µM | Inhibition (%), TA100 ([4]; 0.1 mg/plate): 12.8% | his+ -revertants/per plate, TA100 ([4]; 0.1 mg/plate): 971.3 ± 102.7 revertants/per plate | Inhibition (%), TA100 ([4]; 0.5 mg/plate): 15.5% | his+ -revertants/per plate, TA100 ([4]; 0.5 mg/plate): 947.3 ± 60.3 revertants/per plate | Lipid Peroxidation ([2]; 2 μM): 2.16 ± 0.18 μM MDA/mg protein | Lipid Peroxidation ([2]; 20 μM): 2.13 ± 0.19 μM MDA/mg protein | Inhibition (%), TA102 ([5]; 0.1 mg/plate): 13.8% | his+ -revertants/per plate, TA102 ([5]; 0.1 mg/plate): 1560 ± 40.0 revertants/per plate | Inhibition (%), TA102 ([5]; 0.5 mg/plate): 26.6% | his+ -revertants/per plate, TA102 ([5]; 0.5 mg/plate): 1375 ± 241.5 revertants/per plate

CC(=O)c1cc2ccc(OC(=O)/C=C(C)/C=C/C=C(C)/C=C/C3=C(C)CCCC3(C)C)c(OC(=O)/C=C(C)/C=C/C=C(C)/C=C/C3=C(C)CCCC3(C)C)c2oc1=O [Compound I-9]
Delayed Calcification, Occipital delay/fetus ([6]; 20 mg/kg): 0/75 | Delayed Calcification, Sternum delay/fetus ([6]; 20 mg/kg): 0/75 | Delayed Calcification, Occipital delay/fetus ([6]; 40 mg/kg): 3/77 | Delayed Calcification, Sternum delay/fetus ([6]; 40 mg/kg): 2/77 | EC50 [1, 7]: 0.065 µM | IC50 (HL-60 cells): 0.95 µM | inhibition at 10 µM (HL-60 cells; HL-60): 61.5 ± 1.9% | inhibition at 1 µM (HL-60 cells; HL-60): 50.6 ± 0.5% | inhibition at 0.1 µM (HL-60 cells; HL-60): 48.8 ± 0.5% | inhibition at 0.01 µM (HL-60 cells; 10^-8 M, HL-60): 28 ± 5.2%

CC(=O)c1cc2c(OC(=O)/C=C(C)/C=C/C=C(C)/C=C/C3=C(C)CCCC3(C)C)cc(OC(=O)/C=C(C)/C=C/C=C(C)/C=C/C3=C(C)CCCC3(C)C)cc2oc1=O [Compound I-10]
Delayed Calcification, Occipital delay/fetus ([6]; 20 mg/kg): 22/66 | Delayed Calcification, Sternum delay/fetus ([6]; 20 mg/kg): 14/66 | Delayed Calcification, Occipital delay/fetus ([6]; 40 mg/kg): 15/81 | Delayed Calcification, Sternum delay/fetus ([6]; 40 mg/kg): 21/81 | inhibition of croton oil induced ODC activity [3]: significantly inhibited the ODC activity induced by croton oil | EC50 [1, 7]: 0.013 µM | Animals, final (chondrosarcoma in rats; 5 mg/kg p.o., 12 days, 10 animals initial): 10 | Inhibition rate (%) (chondrosarcoma in rats; 10 mg/kg p.o.): 9.8% | Animals, final (chondrosarcoma in rats; 10 mg/kg p.o., 12 days, 10 animals initial): 9 | Animals, final (chondrosarcoma in rats; 20 mg/kg p.o., 12 days, 10 animals initial): 9 | Inhibition rate (%) (chondrosarcoma in rats; 20 mg/kg p.o., P < 0.05): 42.2%

CC1=C(/C=C/C(C)=C/C=C/C(C)=C/C(=O)Nc2ncnc3c2ncn3C(=O)/C=C(C)/C=C/C=C(C)/C=C/C2=C(C)CCCC2(C)C)C(C)(C)CCC1 [II-A]
Cleft Palate (%) ([6]; 20 mg/kg): 0% | Delayed Calcification (%), Occipital ([6]; 20 mg/kg): 7.6% | Delayed Calcification (%), Sternum ([6]; 20 mg/kg): 9.0% | Cleft Palate (%) ([6]; 40 mg/kg): 0% | Delayed Calcification (%), Occipital ([6]; 40 mg/kg): 7.2% | Delayed Calcification (%), Sternum ([6]; 40 mg/kg): 7.2% | Implanted Number (fetus absorption in mice; 20 mg/kg, 12 pregnant mice): 141 | Absorbed Number (fetus absorption in mice; 20 mg/kg, 12 pregnant mice, 141 implanted): 10 | Implanted Number (fetus absorption in mice; 40 mg/kg, 15 pregnant mice): 181 | Absorbed Number (fetus absorption in mice; 40 mg/kg, 15 pregnant mice, 181 implanted): 17 | Inhibition rate (%) (chondrosarcoma in rats; 2 mg/kg ×10): 49.5% | Tumor Weight (chondrosarcoma in rats; 2 mg/kg ×10): 5.4 grams | Animals, final (chondrosarcoma in rats; 2 mg/kg ×10, 10 animals initial): 9 | Animals, final (chondrosarcoma in rats; 5 mg/kg ×10, 10 animals initial): 9

CC1=C(/C=C/C(C)=C/C=C/C(C)=C/C(=O)Nc2nc3c(ncn3C(=O)/C=C(C)/C=C/C=C(C)/C=C/C3=C(C)CCCC3(C)C)c(=O)[nH]2)C(C)(C)CCC1 [II-D]
IC50 (HCT-8 cell line): 4 µM | EC50 ([1]; HL-60 (Table 16), read-out: NBT): > 10 µM | IC50 (A2780 cell line): > 10 µM | IC50 (BEL 7402 cell line): 5 µM | IC50 (KB cell line): > 10 µM
